# From PubChem BioAssay (NCI)
#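 Test compounds were applied to cells in 96-well plates for 48 hours at 5 doses. The concentration for 50% growth inhibition is given as GI50. Definition used: TGI = concentration required for complete inhibition of growth.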
# Tests used:
# Assay in all cases: NCI-60 cell line screen, 48 h
# NCI/ADR-RES ovarian = system: NCI/ADR-RES ovarian
# OVCAR-3 ovarian = system: OVCAR-3 ovarian
# T-47D breast = system: T-47D breast
# SK-MEL-2 melanoma = system: SK-MEL-2 melanoma
# PC-3 prostate = system: PC-3 prostate
# A549 NSCLC = system: A549 NSCLC
# NCI-H522 lung = system: NCI-H522 lung
# KM12 colon = system: KM12 colon
# ACHN renal = system: ACHN renal
# LOX IMVI melanoma = system: LOX IMVI melanoma
# HL-60(TB) leukemia = system: HL-60(TB) leukemia
# UACC-257 melanoma = system: UACC-257 melanoma
# A498 renal = system: A498 renal
# U251 CNS = system: U251 CNS
# RPMI-8226 leukemia = system: RPMI-8226 leukemia
# MDA-MB-435 = system: MDA-MB-435
# CAKI-1 renal = system: CAKI-1 renal
# COLO 205 colon = system: COLO 205 colon
# SK-MEL-28 melanoma = system: SK-MEL-28 melanoma
# SK-OV-3 ovarian = system: SK-OV-3 ovarian
# OVCAR-4 ovarian = system: OVCAR-4 ovarian
# UACC-62 melanoma = system: UACC-62 melanoma
# MALME-3M melanoma = system: MALME-3M melanoma
# TK-10 renal = system: TK-10 renal
# NCI-H460 lung = system: NCI-H460 lung
# 786-0 renal = system: 786-0 renal
# SF-268 CNS = system: SF-268 CNS
# MCF7 breast = system: MCF7 breast
# HT29 colon = system: HT29 colon
smiles,measurement,setting,value
C#C[C@]1(O)CC[C@H]2[C@@H]3CC=C4c5sc(-c6ccc(C)cc6)nc5CC[C@]4(C)[C@H]3CC[C@@]21C,GI50,NCI/ADR-RES ovarian,> 100 µM
same,TGI,NCI/ADR-RES ovarian,> 100 µM
same,GI50,OVCAR-3 ovarian,> 100 µM
same,TGI,OVCAR-3 ovarian,> 100 µM
same,GI50,T-47D breast,93.7 µM
same,TGI,T-47D breast,> 100 µM
same,GI50,SK-MEL-2 melanoma,> 100 µM
same,TGI,SK-MEL-2 melanoma,> 100 µM
same,GI50,PC-3 prostate,26.2 µM
same,TGI,PC-3 prostate,> 100 µM
same,GI50,A549 NSCLC,95.5 µM
same,TGI,A549 NSCLC,> 100 µM
same,GI50,NCI-H522 lung,> 100 µM
same,TGI,NCI-H522 lung,> 100 µM
same,GI50,KM12 colon,> 100 µM
same,TGI,KM12 colon,> 100 µM
same,GI50,ACHN renal,> 100 µM
same,TGI,ACHN renal,> 100 µM
same,GI50,LOX IMVI melanoma,> 100 µM
same,TGI,LOX IMVI melanoma,> 100 µM
same,GI50,HL-60(TB) leukemia,35.6 µM
same,TGI,HL-60(TB) leukemia,> 100 µM
same,GI50,UACC-257 melanoma,> 100 µM
same,TGI,UACC-257 melanoma,> 100 µM
same,GI50,A498 renal,> 100 µM
same,TGI,A498 renal,> 100 µM
same,GI50,U251 CNS,61 µM
same,TGI,U251 CNS,> 100 µM
same,GI50,RPMI-8226 leukemia,1.91 µM
same,TGI,RPMI-8226 leukemia,> 100 µM
same,GI50,MDA-MB-435,> 100 µM
same,TGI,MDA-MB-435,> 100 µM
same,GI50,CAKI-1 renal,60.9 µM
same,TGI,CAKI-1 renal,> 100 µM
same,GI50,COLO 205 colon,> 100 µM
same,TGI,COLO 205 colon,> 100 µM
same,GI50,SK-MEL-28 melanoma,> 100 µM
same,TGI,SK-MEL-28 melanoma,> 100 µM
same,GI50,SK-OV-3 ovarian,> 100 µM
same,TGI,SK-OV-3 ovarian,> 100 µM
same,GI50,OVCAR-4 ovarian,> 100 µM
same,TGI,OVCAR-4 ovarian,> 100 µM
same,GI50,UACC-62 melanoma,> 100 µM
same,TGI,UACC-62 melanoma,> 100 µM
same,GI50,MALME-3M melanoma,> 100 µM
same,TGI,MALME-3M melanoma,> 100 µM
same,GI50,TK-10 renal,> 100 µM
same,TGI,TK-10 renal,> 100 µM
same,GI50,NCI-H460 lung,> 100 µM
same,TGI,NCI-H460 lung,> 100 µM
same,GI50,786-0 renal,3.41 µM
same,TGI,786-0 renal,61.6 µM
same,GI50,SF-268 CNS,> 100 µM
same,TGI,SF-268 CNS,> 100 µM
same,GI50,MCF7 breast,46.8 µM
same,TGI,MCF7 breast,> 100 µM
same,GI50,HT29 colon,24.5 µM
same,TGI,HT29 colon,> 100 µM
